Like-named read-outs stand apart in the source and are kept apart here.
Legend:
[1] = test system: PANC-1 pancreatic cancer cells; experiment: Cleavage of Caspase-3, Caspase-8 and PARP; format: cell-based; details: 0-20 μM for 48 hours; 20 μM for 0-48 hours
Description: FIG. 12. Cleavage of Caspase-3, Caspase-8, and PARP confirms that de-ethylflavopereirine induces apoptosis in PANC-1 pancreatic cancer cells. Beta-actin was used as a control.
Induction of apoptosis was also shown by detection of Caspase-8, Caspase-3, and PARP cleavage products. The cleaved protein products are identified in FIG. 12 by arrows adjacent to the right panel. The accumulation of these proteolytic fragments is a biochemical signature for apoptotic cell death.

[2] = test system: PANC-1, MIA PaCa, BxPc; experiment: Apoptosis by flow cytometry in pancreatic cancer cell lines; format: cell-based; details: 10 μM and 20 μM
Procedure: FIG. 11. De-ethylflavopereirine induces apoptosis in pancreatic cancer cell lines PANC-1 (top), MIA PaCa (middle), and BxPc (bottom). Following exposure of cells to de-ethylflavopereirine at concentrations of 0.5 μM, 10 μM, and 20 μM, flow cytometry was used to assess the percentage of cells undergoing early apoptosis (clear), late apoptosis (dark), or necrosis (stipple). […] Values are mean±SEM (n=3). *p≤0.05 compared with control group using Student's t-test; **p≤0.01 compared with control group using Student's t-test.

[3] = test system: HT-29; experiment: Viability of bioluminescent HT-29 colon cancer cells; format: cell-based, human; details: HT-29, luminescence
Description: FIG. 10. Dose-response curve for human colon cancer cell line HT-29 exposed to either de-ethylflavopereirine (squares) or Pao pereira plant extract (triangles) containing flavopereirine and at least one other anti-cancer compound, dihydroflavopereirine. The bioluminescent HT-29 cell line was used.
A bioluminescent line was used enabling viability to be assessed by luminescence. In this case, the activity of compound 13-9-1 was compared with a Pao pereira extract containing flavopereirine and at least one other anti-cancer compound.

[4] = test system: MRC-5; experiment: MTT cell viability, normal control cell line; format: cell-based, human; details: MRC-5, 48 hr
Procedure: FIG. 7. Dose-response curves for cell viability of human ovarian cancer cell lines OVCAR-5 (triangles), SHIN-3 (squares), and OVCAR-8 (lozenges) exposed to de-ethylflavopereirine. Cells were cultured in the presence of increasing concentrations of the compound for 48 hr and cell viability was determined by MTT assay. MRC-5 (crosses), an immortalized, normal human […] cell line, was used as a control.
FIG. 8. Dose-response curves for cell viability of human pancreatic cancer cell lines MIA PaCa (squares), PANC-1 (lozenges), BxPc (crosses), and AsPc (triangles) exposed to de-ethylflavopereirine. Cells were cultured in the presence of increasing concentrations of the compound for 48 hr and cell viability was determined by MTT assay. MRC-5 (asterisks) was used as a control.
De-ethylflavopereirine was tested for its activity against ovarian, pancreatic, brain, and colon cancer cell lines. […] Cytotoxicity is assayed by reducing a yellow tetrazolium dye, 3-(4,5-dimethylthiazol-2-yl)-2,5-diphenyltetrazolium bromide (MTT), to insoluble purple formazan. The MTT assay is a colorimetric assay for determining the number of viable cells.

[5] = Tissue distribution after oral administration; format: in vivo, mice; details: oral 200 mg/kg; for Tmax: mouse
Description: The highest concentrations (highest Cmax) were found in kidney, colon and spleen. Highest AUC was found with the lung, followed by spleen, colon, and kidney.
Lung had the largest AUC and the fastest Tmax. […] Compound 13-9-1 was accumulated in the lung relatively fast, and was eliminated relatively slowly. The concentration was maintained in lung for a long time relative to other organs. At 24 hr, the concentration in the lung was still 6.67 nmoles/mg protein, 38% of the peak of 17.50 at 2 hr.
Colon had the second highest Cmax among all the organs tested, and an AUC only less than lung and spleen. […] Tmax was 3 hr. At 24 hr, the concentration was 9.31 nmoles/mg protein, 29% of the peak of 31.63.

[6] = format: in vivo; details: 100, 150 and 200 mg/kg, groups of two, 48 hr observation
Procedure: A study with synthetic compounds 13-7-2 (flavopereirine) and 13-9-1 (de-ethylflavopereirine) was conducted to compare the toxicity of the two compounds in animals. The compounds were dissolved in phosphate buffered saline for administration. Both compounds were injected IP in male immunodeficient (homozygous recessive scid/scid, beige/beige) mice.
Compound 13-7-2 was injected at a dose of 100 mg/kg, 150 mg/kg, and 200 mg/kg in mice divided in groups of two. […] One mouse injected with 150 mg/kg died at 6 hr whereas one mouse injected with 200 mg/kg dose died at 24 hr. One mouse injected with 100 mg/kg dose died at 48 hr.
Compound 13-9-1 was injected at a dose of 100 mg/kg, 150 mg/kg, and 200 mg/kg in mice divided in groups of two.

[7] = test system: LnCap; experiment: Cell Proliferation (anti-cancer), LnCap; format: cell-based, human
Procedure: The primary goal of synthesizing de-ethylflavopereirine (compound 13-9-1) was to generate a different compound that still retains the anti-cancer cell activity of flavopereirine (compound 13-7-2). Comparison of the effects of the two compounds on proliferation of a variety of cancer cells confirmed that this goal was achieved. For example, the effect of de-ethylflavopereirine on two human breast cancer cell lines and two human prostate cancer cell lines were analyzed.

In the case of `c1ccc2c(c1)[nH]c1c2cc[n+]2ccccc12` [Compound 13-9-1, 12H-indolo[2,3-a]quinolizin-5-ium], the “cleavage of Caspase-3, Caspase-8 and PARP” value [1] is reported as “dose- and time-dependent”, the induction of apoptosis [2] is reported as “induction is dose dependent” and the induction of apoptosis ([2]; listed as De-ethylflavopereirine) is reported as “Early apoptosis is the predominant result”. The “activity compared with Pao pereira extract” value [3] was “active at much lower concentrations than the plant extract”, the “toxicity to noncancerous cells compared with cancer cells” value [4] was “significantly less toxic” and the Cmax ([5]; adrenal gland) was 17.62 nmoles/mg of protein. The Cmax ([5]; brain) was 1.20 nmoles/mg of protein, the Cmax ([5]; colon) was 31.63 nmoles/mg of protein and the “concentration at 24 hr” value ([5]; colon) was 9.31 nmoles/mg protein. The “concentration at 24 hr as share of the peak” value ([5]; colon) was 29%, the Cmax ([5]; heart) was 7.82 nmoles/mg of protein and the Cmax ([5]; kidney) was 55.69 nmoles/mg of protein. The Cmax ([5]; liver) was 22.21 nmoles/mg of protein, the Cmax ([5]; lung) was 17.50 nmoles/mg of protein and the “concentration at 24 hr” value ([5]; lung) was 6.67 nmoles/mg protein. The “concentration at 24 hr as share of the peak” value ([5]; lung) was 38%, the Tmax ([5]; adrenal gland) was 4 h and the Tmax ([5]; brain) was 4 h. It also gave a Tmax ([5]; colon) of 3 h, a Tmax ([5]; heart) of 4 h and a Tmax ([5]; kidney) of 4 h. The Tmax ([5]; liver) was 4 h, the Tmax ([5]; lung) was 2 h and the Tmax ([5]; muscle) was 4 h. It also gave a Tmax ([5]; ovary) of 4 h, a Tmax ([5]; pancreas) of 4 h and a Tmax ([5]; spleen) of 4 h. For the same compound, the Cmax ([5]; muscle) was 5.67 nmoles/mg of protein, the tissue distribution [5] was “found in all tested organs and tissues, including the brain” and the Cmax ([5]; ovary) was 11.17 nmoles/mg of protein. The Cmax ([5]; pancreas) was 16.95 nmoles/mg of protein, the Cmax ([5]; spleen) was 30.01 nmoles/mg of protein and the “deaths after IP injection” value [6] was “None of the mice injected with compound 13-9-1 died”. For the same compound, the “deaths after IP injection” value ([6]; listed as de-ethylflavopereirine) was “no mice injected IP with de-ethylflavopereirine died”, the “Growth Inhibition” value [7] was “Yes” and the IC50 ([7]; Homo sapiens, after any period of treatment, read-out: Minimum Dose (IC50) needed to decrease growth 50% or greater versus control) was 5 µM.

Source: US11083714B2, “Selective anti-cancer agent effective for prevention and treatment” (Molecular International Research, Inc., priority 2018, dated 2021)
